Patent publication US12691093B2 (THE TRUSTEES OF INDIANA UNIVERSITY, priority 2020, dated 2026)

Test system: MC38-OVA cells
Assay: CD8+ T cell cytotoxicity assay (OT-I CD8+ T cells co-cultured with MC38-OVA cells, luciferase)
Assay type: cell-based, mouse
Settings: each drug 5.0 μM; in vitro luciferase assay
Procedure: MC38-OVA cells expressing luciferase were co-cultured with OT-I CD8+ T cells in the presence of each drug (5.0 μM) and the T cell-mediated cytotoxicity was measured by the luciferase assay. Difference (log 2): (log 2 [relative viability] >1; P<0.05). Relative viability=(tumor cell viability of treated group)/(tumor cell viability of control group). […] Statistical analysis was conducted using 1-way ANOVA.
T cells were then centrifuged and cultured in RPMI1640 medium containing of 2 ng/ml murine IL2, 10% FBS and 1% PS.To measure the cytotoxicity of CD8+ T cells, 50,000 enriched CD8+ T cells were mixed in 96-well plates with MC38-OVA cells at ratios of 5:1, 1:1 or 1:5. […] We assessed the killing efficiency by measuring the activity of luciferase (#E1910, Dual-Luciferase® Reporter Assay System, Promega) after 6 hours of co-culture of the T-cells together with the tumor cells.
The CD8+ T cells were freshly isolated from the spleen of OT-I mouse (C57BL/6-Tg (TcraTcrb) 1100Mjb/J).

Row | Molecule | ranking in screen of antigen-specific OT-I CD8+ T-cell killing of MC38-OVA tumor cells
1 | icariin | top-ranked compounds that most potently affected the T-cell activity
2 | COc1ccc(-c2coc3cc(O)cc(O)c3c2=O)cc1 [biochanin A] | top-ranked compounds that most potently affected the T-cell activity
